Measurements from the supplement of paper PMC10307832.

Key:
Test in all cases: relative viability (nuclei count vs DMSO), 5 days (fraction); higher = more cells survive
NCI-H1650 = tested on: NCI-H1650
Procedure, shortened: (§1)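 Nuclei were stained with Hoechst during a one-step fixation (final 0.05% Triton X-100, 1% formaldehyde, 1 ug/ml Hoechst) carried out 5 days after dosing, then counted on 4× images. The cells, lung cancer lines in 1536-well plates, had been dosed by pin tool the day after seeding with one drug alone or a fixed anchor-drug dose plus five library-drug doses (not always all listed) in √10 steps. Relative viability is the nuclei count in treated wells divided by that in vehicle wells, and each value is the median of duplicate plates.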

NCI-H1993 = tested on: NCI-H1993
Procedure, shortened: as §1

NCI-H2170 = tested on: NCI-H2170
Procedure, shortened: as §1

NCI-H2228 = tested on: NCI-H2228
Procedure, shortened: as §1

NCI-H2405 = tested on: NCI-H2405
Procedure, shortened: as §1

NCI-H3122 = tested on: NCI-H3122
Procedure, shortened: as §1

NCI-H441 = tested on: NCI-H441
Procedure, shortened: as §1

NCI-H522 = tested on: NCI-H522
Procedure, shortened: as §1

PC-3 [JPC-3] = tested on: PC-3 [JPC-3]
Procedure, shortened: as §1

SK-LU-1 = tested on: SK-LU-1
Procedure, shortened: as §1

SW 1573 = tested on: SW 1573
Procedure, shortened: as §1

UMC-11 = tested on: UMC-11
Procedure, shortened: as §1

Cc1cn(-c2cc(NC(=O)c3ccc(C)c(Nc4nccc(-c5cccnc5)n4)c3)cc(C(F)(F)F)c2)cn1 [Nilotinib] + N=C(N)NC(=N)NCCc1ccccc1 [Phenformin] (partner 250 µM)
relative viability (NCI-H1650; first compound 0.01 µM): 0.385
relative viability (NCI-H1650; first compound 0.03162 µM): 0.32
relative viability (NCI-H1650; first compound 0.1 µM): 0.307
relative viability (NCI-H1993; first compound 0.001 µM): 0.554
relative viability (NCI-H1993; first compound 0.003162 µM): 0.55
relative viability (NCI-H1993; first compound 0.01 µM): 0.522
relative viability (NCI-H1993; first compound 0.03162 µM): 0.482
relative viability (NCI-H1993; first compound 0.1 µM): 0.701
relative viability (NCI-H2170; first compound 0.001 µM): 0.408
relative viability (NCI-H2170; first compound 0.003162 µM): 0.432
relative viability (NCI-H2170; first compound 0.01 µM): 0.409
relative viability (NCI-H2170; first compound 0.03162 µM): 0.394
relative viability (NCI-H2170; first compound 0.1 µM): 0.363
relative viability (NCI-H2228; first compound 0.003162 µM): 0.388
relative viability (NCI-H2228; first compound 0.01 µM): 0.383
relative viability (NCI-H2228; first compound 0.03162 µM): 0.259
relative viability (NCI-H2228; first compound 0.1 µM): 0.278
relative viability (NCI-H2405; first compound 0.001 µM): 0.381
relative viability (NCI-H2405; first compound 0.003162 µM): 0.357
relative viability (NCI-H2405; first compound 0.01 µM): 0.397
relative viability (NCI-H2405; first compound 0.03162 µM): 0.356
relative viability (NCI-H2405; first compound 0.1 µM): 0.346
relative viability (NCI-H3122; first compound 0.001 µM): 0.36
relative viability (NCI-H3122; first compound 0.003162 µM): 0.375
relative viability (NCI-H3122; first compound 0.01 µM): 0.341
relative viability (NCI-H3122; first compound 0.03162 µM): 0.352
relative viability (NCI-H3122; first compound 0.1 µM): 0.309
relative viability (NCI-H441; first compound 0.001 µM): 0.798
relative viability (NCI-H441; first compound 0.003162 µM): 0.89
relative viability (NCI-H441; first compound 0.01 µM): 0.896
relative viability (NCI-H441; first compound 0.03162 µM): 0.648
relative viability (NCI-H441; first compound 0.1 µM): 0.881
relative viability (NCI-H522; first compound 0.001 µM): 0.591
relative viability (NCI-H522; first compound 0.003162 µM): 0.613
relative viability (NCI-H522; first compound 0.01 µM): 0.719
relative viability (NCI-H522; first compound 0.03162 µM): 0.663
relative viability (NCI-H522; first compound 0.1 µM): 0.56
relative viability (PC-3 [JPC-3]; first compound 0.001 µM): 0.463
relative viability (PC-3 [JPC-3]; first compound 0.003162 µM): 0.49
relative viability (PC-3 [JPC-3]; first compound 0.01 µM): 0.475
relative viability (PC-3 [JPC-3]; first compound 0.03162 µM): 0.443
relative viability (PC-3 [JPC-3]; first compound 0.1 µM): 0.482
relative viability (SK-LU-1; first compound 0.001 µM): 0.47
relative viability (SK-LU-1; first compound 0.003162 µM): 0.455
relative viability (SK-LU-1; first compound 0.01 µM): 0.597
relative viability (SK-LU-1; first compound 0.03162 µM): 0.402
relative viability (SK-LU-1; first compound 0.1 µM): 0.306
relative viability (SW 1573; first compound 0.001 µM): 0.405
relative viability (SW 1573; first compound 0.003162 µM): 0.445
relative viability (SW 1573; first compound 0.01 µM): 0.412
relative viability (SW 1573; first compound 0.03162 µM): 0.179
relative viability (SW 1573; first compound 0.1 µM): 0.289
relative viability (UMC-11; first compound 0.001 µM): 0.312
relative viability (UMC-11; first compound 0.003162 µM): 0.344
relative viability (UMC-11; first compound 0.01 µM): 0.324
relative viability (UMC-11; first compound 0.1 µM): 0.217
